Measured values taken from ChEMBL document CHEMBL1201862, “PubChem BioAssay data set” (2004).
Calls of active or inactive are those of the source.

What was measured:
[1] = Luminescence Cell-Based Dose Response to Identify Activators of 5'UTR Stem-Loop Driven Prion Protein mRNA Translation in H4-C Neuroglioblastoma Cells. [Related pubchem assays: 1829 (Project Summary), 1814 (Primary HTS)]; type: functional
[2] = Luminescence Cell-Based Dose Confirmation HTS to Identify Activators of 5'UTR Stem-Loop Driven Alpha-Synuclein mRNA Translation in H4 Neuroglioblastoma Cells. [Related pubchem assays: 1829 (Project Summary), 1814 (Primary HTS)]; type: functional
[3] = Luminescence Cell-Based Dose Response HTS to Identify Activators of Luciferase Translation or Activity in H4 […] Cells. [Related pubchem assays: 1829 (Project Summary), 1814 (Primary HTS)]; type: functional
[4] = system: H4; test: Luminescence Cell-Based Dose Response HTS to Identify Activators of 5'UTR Stem-Loop Driven Prion Protein mRNA Translation in H4 Neuroglioblastoma Cells. [Related pubchem assays: 1829 (Project Summary), 1814 (Primary HTS)]; type: functional; conditions: Homo sapiens
[5] = Luminescence Cell-Based Dose Response to Identify Activators of Luciferase Translation or Activity in H4-C Neuroglioblastoma Cells. [Related pubchem assays: 1829 (Project Summary), 1814 (Primary HTS)]; type: functional
[6] = Luminescence Cell-Based Dose Confirmation to Identify Activators of 5'UTR Stem-Loop Driven Alpha-Synuclein mRNA Translation in H4 Neuroglioblastoma Cells. [Related pubchem assays: 1829 (Project Summary), 1814 (Primary HTS)]; type: functional
[7] = biological target: T1, RNA-binding protein pos-1 (Caenorhabditis elegans, UniProt G5EF15); test: disruptors of C. elegans POS-1 RNA interaction – biochemical, fluorescence polarization, dose response (AID 1964);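 note: purified POS-1 fused to maltose binding protein made in E. coli; potency of compounds blocking POS-1 binding to fluorescent RNA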
T1 sequence (G5EF15 whole entry): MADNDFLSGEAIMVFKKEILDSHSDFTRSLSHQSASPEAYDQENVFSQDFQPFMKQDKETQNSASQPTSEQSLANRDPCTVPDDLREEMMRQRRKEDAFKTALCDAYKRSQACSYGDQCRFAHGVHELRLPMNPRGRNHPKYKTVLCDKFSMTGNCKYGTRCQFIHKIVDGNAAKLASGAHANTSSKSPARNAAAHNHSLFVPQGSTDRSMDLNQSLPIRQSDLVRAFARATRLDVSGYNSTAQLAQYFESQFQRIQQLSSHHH

[8] = biological target: T2, Zinc finger protein mex-5 (Caenorhabditis elegans, UniProt Q9XUB2); test: potency of MEX-5 RNA-binding blockers – biochemical, C. elegans, fluorescence polarization, dose response (AID 1960)
T2 sequence (Q9XUB2 whole entry): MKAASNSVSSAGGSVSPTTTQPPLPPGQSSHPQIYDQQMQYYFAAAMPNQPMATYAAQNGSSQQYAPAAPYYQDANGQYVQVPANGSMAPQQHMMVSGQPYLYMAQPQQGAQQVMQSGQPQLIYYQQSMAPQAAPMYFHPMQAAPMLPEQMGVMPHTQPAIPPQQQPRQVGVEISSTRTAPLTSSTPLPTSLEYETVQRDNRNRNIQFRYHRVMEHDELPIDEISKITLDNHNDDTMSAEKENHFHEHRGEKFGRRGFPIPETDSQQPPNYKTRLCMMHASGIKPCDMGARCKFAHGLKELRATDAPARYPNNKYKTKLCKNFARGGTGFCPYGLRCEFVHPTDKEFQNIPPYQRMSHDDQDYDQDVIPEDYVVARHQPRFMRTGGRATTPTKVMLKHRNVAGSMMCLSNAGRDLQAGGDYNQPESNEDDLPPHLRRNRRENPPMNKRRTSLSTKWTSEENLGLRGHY

[9] = biological target: Genome polyprotein (dengue virus type 2, UniProt P29990); test: flavivirus cap methylation enzyme inhibition – biochemical, confirmation dose response, primary screen (AID 588689); type: functional
[10] = biological target: T3, Short transient receptor potential channel 4 (Mus musculus, UniProt Q9QUQ5); test: calcium entry via TRPC4 opening agents – cell-based, HEK293 TRPC4/mu-opioid, Fluo-4 calcium, dose response (AID 434937); type: functional
T3 sequence (Q9QUQ5 whole entry): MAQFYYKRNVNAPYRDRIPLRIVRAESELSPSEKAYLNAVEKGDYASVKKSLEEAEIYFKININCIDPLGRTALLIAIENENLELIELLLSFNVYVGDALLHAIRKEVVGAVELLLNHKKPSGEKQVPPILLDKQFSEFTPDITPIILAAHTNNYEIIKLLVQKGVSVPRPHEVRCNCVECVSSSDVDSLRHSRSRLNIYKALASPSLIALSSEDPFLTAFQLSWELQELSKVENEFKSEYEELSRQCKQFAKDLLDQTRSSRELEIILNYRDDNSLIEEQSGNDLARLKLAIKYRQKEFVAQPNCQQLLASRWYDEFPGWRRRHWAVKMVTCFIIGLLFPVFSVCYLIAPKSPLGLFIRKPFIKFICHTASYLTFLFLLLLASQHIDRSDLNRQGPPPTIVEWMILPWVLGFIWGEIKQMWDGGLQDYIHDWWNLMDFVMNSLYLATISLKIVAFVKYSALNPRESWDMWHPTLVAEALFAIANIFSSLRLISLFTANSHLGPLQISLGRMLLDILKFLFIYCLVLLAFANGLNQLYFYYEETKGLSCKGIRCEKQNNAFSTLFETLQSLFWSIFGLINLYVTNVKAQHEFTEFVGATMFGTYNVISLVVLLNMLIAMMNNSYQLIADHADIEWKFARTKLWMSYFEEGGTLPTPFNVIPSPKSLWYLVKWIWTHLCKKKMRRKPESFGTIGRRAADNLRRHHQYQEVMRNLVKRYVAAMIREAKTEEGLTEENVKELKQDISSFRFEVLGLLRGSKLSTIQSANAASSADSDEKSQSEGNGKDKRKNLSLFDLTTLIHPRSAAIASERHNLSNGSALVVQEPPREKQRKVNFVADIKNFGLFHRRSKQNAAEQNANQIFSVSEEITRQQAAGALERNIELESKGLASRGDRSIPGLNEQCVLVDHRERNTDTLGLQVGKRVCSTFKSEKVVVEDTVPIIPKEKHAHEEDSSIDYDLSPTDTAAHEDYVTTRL

[11] = biological target: T4, Corticotropin-releasing factor receptor 2/Corticotropin-releasing factor-binding protein (Homo sapiens, UniProt P24387+Q13324); test: Dose Response confirmation of uHTS hits for small molecule antagonists of the CRF-binding protein and CRF-R2 receptor complex.; type: functional; conditions: read-out: IC50_Mean
T4 sequence (Q13324 whole entry): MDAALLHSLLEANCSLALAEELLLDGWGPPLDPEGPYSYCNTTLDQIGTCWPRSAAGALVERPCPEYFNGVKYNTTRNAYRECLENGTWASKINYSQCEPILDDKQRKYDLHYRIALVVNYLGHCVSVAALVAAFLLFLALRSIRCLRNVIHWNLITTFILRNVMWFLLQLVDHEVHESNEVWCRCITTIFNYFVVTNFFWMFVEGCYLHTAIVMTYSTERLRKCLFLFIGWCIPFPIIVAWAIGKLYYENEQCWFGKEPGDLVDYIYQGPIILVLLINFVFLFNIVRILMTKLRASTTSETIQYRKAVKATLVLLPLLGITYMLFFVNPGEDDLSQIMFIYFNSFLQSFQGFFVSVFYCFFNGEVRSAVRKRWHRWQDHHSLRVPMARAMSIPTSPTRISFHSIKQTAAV
T4 sequence (P24387 whole entry): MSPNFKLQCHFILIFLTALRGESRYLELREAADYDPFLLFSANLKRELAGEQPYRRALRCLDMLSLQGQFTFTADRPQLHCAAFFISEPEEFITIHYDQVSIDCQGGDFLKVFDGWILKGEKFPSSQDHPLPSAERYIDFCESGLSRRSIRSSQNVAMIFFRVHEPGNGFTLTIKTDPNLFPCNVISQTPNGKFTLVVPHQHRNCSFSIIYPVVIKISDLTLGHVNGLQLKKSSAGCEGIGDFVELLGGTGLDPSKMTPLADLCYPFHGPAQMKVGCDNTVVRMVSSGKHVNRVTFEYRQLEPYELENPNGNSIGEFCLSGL

[12] = biological target: T4, Corticotropin-releasing factor receptor 2/Corticotropin-releasing factor-binding protein; test: activators of CRF receptor 2 with binding protein – uHTS hits, confirmation (AID 602473); type: functional; conditions: read-out: EC50_Mean
[13] = blockers of CRF-binding protein–CRF-R2 complex – cell-based, uHTS hits, 384-well, dose response (AID 651639); type: functional, Homo sapiens; conditions: read-out: IC50_Mean
[14] = A549 cell cytotoxicity, dose response, cytotoxicity control, plate reader, cherry-pick, antagonist series (AID 743412); type: functional, cell-based
[15] = toxicity toward HepG2 liver cells – cell-based, plate reader, cherry-pick, antagonist series, cytotoxicity control, dose response (AID 743416); type: functional
[16] = blockers of bursicon-stimulated LGR2 cAMP reporter – cell-based, HEK293, CRE-luciferase reporter, cherry pick, set 2, dose response (AID 743343); type: functional;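 note: transfected cells were stimulated with diluted bursicon conditioned medium after compound addition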
[17] = blockade of melanocortin 4 receptor signaling – cell-based, plate reader, cherry pick, counter-screen for LGR2 antagonist project, dose response (AID 743444); type: functional;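 note: transfected HEK 293 cells stimulated with alpha-MSH peptide; potency of inhibitors of the alpha-MSH evoked signal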
[18] = biological target: FAD-linked sulfhydryl oxidase ALR (Homo sapiens, UniProt P55789); test: ALR-catalysed DTT oxidation blockers – biochemical, H2O2 detection, luminescence, cherry-pick, dose response (AID 493248)
[19] = HIV-1 Vif–A3G interaction blockers – biochemical, TR-FRET, GST-Vif 1-94, biotin-A3G peptide, dose response retest, primary screen (AID 1117319); type: functional;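 note: TR-FRET signal of purified GST-Vif binding a biotinylated A3G peptide; inhibitors lower the FRET signal by blocking Vif and A3G binding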

Sequence of Genome polyprotein (P29990 2492-3391 limits assumed): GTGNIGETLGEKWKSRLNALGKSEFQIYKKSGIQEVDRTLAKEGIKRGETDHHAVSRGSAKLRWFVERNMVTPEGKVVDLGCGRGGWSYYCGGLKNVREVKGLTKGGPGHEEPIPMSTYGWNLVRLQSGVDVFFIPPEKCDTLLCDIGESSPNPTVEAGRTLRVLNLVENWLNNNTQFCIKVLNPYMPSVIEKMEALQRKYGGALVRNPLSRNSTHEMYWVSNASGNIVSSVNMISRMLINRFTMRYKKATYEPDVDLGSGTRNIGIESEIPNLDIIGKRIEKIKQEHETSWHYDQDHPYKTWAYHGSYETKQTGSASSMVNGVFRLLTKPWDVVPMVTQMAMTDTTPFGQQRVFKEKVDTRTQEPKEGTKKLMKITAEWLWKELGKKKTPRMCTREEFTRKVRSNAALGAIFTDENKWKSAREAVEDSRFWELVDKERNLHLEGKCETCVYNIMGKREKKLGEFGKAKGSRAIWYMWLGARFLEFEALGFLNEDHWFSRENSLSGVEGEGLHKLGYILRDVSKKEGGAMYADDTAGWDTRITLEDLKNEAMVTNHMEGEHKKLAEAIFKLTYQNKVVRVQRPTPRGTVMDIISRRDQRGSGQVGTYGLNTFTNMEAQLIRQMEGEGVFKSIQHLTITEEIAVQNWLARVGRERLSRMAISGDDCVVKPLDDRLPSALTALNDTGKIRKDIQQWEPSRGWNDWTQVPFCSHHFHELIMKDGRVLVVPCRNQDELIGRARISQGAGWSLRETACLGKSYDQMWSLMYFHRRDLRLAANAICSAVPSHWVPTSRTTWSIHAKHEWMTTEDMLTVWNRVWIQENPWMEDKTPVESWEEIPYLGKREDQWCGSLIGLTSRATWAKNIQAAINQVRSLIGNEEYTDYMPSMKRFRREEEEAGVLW
Sequence of FAD-linked sulfhydryl oxidase ALR (P55789 whole entry): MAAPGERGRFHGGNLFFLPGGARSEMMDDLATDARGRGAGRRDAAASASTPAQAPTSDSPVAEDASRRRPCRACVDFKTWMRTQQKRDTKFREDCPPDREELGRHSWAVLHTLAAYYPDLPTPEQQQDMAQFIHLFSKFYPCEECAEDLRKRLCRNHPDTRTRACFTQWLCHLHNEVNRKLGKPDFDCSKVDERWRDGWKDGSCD

N=C(CS(=O)(=O)c1ccccn1)NOC(=O)c1ccccc1Cl
EC50 [1]: 0.769 µM (active)
EC50 [2]: 0.17 µM (active)
EC50 [3]: < 0.1 µM (active)
EC50 [4]: 10.7 µM (active)
EC50 [5]: 5.85 µM (active)
EC50 [6]: 0.244 µM (active)

COc1ccc(/C=c2\sc3nc(=O)c(C)nn3c2=O)c(OC)c1
EC50 [7]: > 300 µM (not active)
EC50 [8]: 88 µM (active)
IC50 [9]: 22.1 µM (active)

CCOC(=O)c1cc(C)n(CCc2c[nH]cn2)c1C
EC50 [10]: 0.0533 µM (active)

Cc1cs/c(=N\c2ccccc2)n1Cc1ccco1
IC50 [11]: 38.4 µM (active)
EC50 [12]: > 53 µM (inactive)
IC50 [13]: > 20 µM (inactive)

S=C(NCCc1ccccc1)N1CCC2CC1c1c(Cl)cccc12 (centres undefined)
IC50 [11]: 28.9 µM (active)
EC50 [12]: > 53 µM (inactive)
IC50 [13]: > 20 µM (inactive)

Cc1cc(C)n2c(Nc3ccc4c(c3)OCCO4)c(-c3cc4ccccc4o3)nc2n1
AC50 [14]: 29.8 µM (active)
AC50 [15]: > 52 µM (inactive)
AC50 [16]: 12.7 µM (active)
AC50 [17]: 22.8 µM (active)

CCCC(=O)N1CCc2cc(-c3nc(N)sc3C)ccc21
EC50 [2]: 43.5 µM (active)
EC50 [3]: 31.9 µM (active)
EC50 [4]: 44.6 µM (active)
EC50 [10]: 0.376 µM (active)
AC50 [18]: 0.149 µM (active)
IC50 [11]: > 47.1 µM (inactive)
EC50 [12]: > 53 µM (inactive)

Cc1ccc(-n2nnnc2SCc2nnc(-c3ccccc3Br)o2)cc1
IC50 [11]: 11 µM (active)
EC50 [12]: > 53 µM (inactive)
IC50 [13]: 3.85 µM (active)

CC1C/C(=N/N2C(=O)CSC2=S)CC(C)(C)C1 (centres undefined)
IC50 [19]: > 100 µM (active)

CCC(=O)N1CCc2cc(Br)cc(S(=O)(=O)NCCCN(C)Cc3ccccc3)c21
EC50 [10]: 0.0947 µM (active)

Cc1ccccc1N=C(S)NCCc1ccccn1
EC50 [10]: 5.31 µM (active)

COc1cc(NC(=O)CSc2ncnc3sc4c(c23)CCC(C)C4)c(C(=O)O)cc1OC (centres undefined)
IC50 [9]: 86 µM (active)
